Test results from patent US20230043678A1, “USE OF 5-METHYLTETRAHYDROFOLATE” (priority 2019, published 2023).
Like-named read-outs stand apart in the source and are kept apart here.

Experiments:
[1] = tested on: zebrafish embryos; assay: Teratogenic effect of folic acid on zebrafish embryos (Example 3); conditions: for embryo coverage: 8 hpf
Experimental: Transgenic zebrafish (fli-1:EGFP) were from the Model Animal Research Center of Nanjing University. Adult zebrafish aged less than 1 were used for experiment and fed at a water pH value of 7±0.2, a temperature around 28° C. and a ratio of illumination to darkness of 14 h:10 h, and with Artemia salina eggs twice a day. Three zebrafish, one female, two males, were placed in a spawning box the night before and eggs were collected the next morning. Fish eggs were placed in an embryo culture medium (prepared with 0.2 g/L of sea salt) and cultured at 28° C. […] Dead embryos were cleaned up in time. A phenotype of malformation was observed, the number of all abnormal zebrafish where the malformation was present was recorded and a malformation rate and a rescue rate of each group were calculated. Morphological defects, a heart rate, cardiac morphology and other indicators were observed and evaluated by an SMZ745T inverted stereomicroscope.

[2] = tested on: heart of neonatal mice; conditions: mouse, in vivo
Experimental: 75 7-week-old female C57BL/6J mice and 25 8-week-old male C57BL/6J mice were provided by Shanghai Lingchang Biotechnology Co., Ltd. with a certificate number of SCXK (Shanghai) 2018-0003. […] The female mice were randomly divided into 5 groups according to body weight: a solvent control group, a folic acid (151.66 μg/kg) group, a folic acid (303.32 μg/kg) group, a calcium 5-methyltetrahydrofolate (converted to folic acid, 151.66 μg/kg) group and a calcium 5-methyl tetrahydrofolate (converted to folic acid, 303.32 μg/kg) group. 1.1275 unit mass of the calcium 5-methyltetrahydrofolate equaled to 1 unit mass of the folic acid.
15 mice were in each group and numbered by a toe clipping method. The mice were intragastrically administrated once a day on the second day after grouping. One week after the pre-administration, male and female mice were caged at a ratio of […], a vaginal plug was observed every day from the next day, and a day when the vaginal plug was seen was recorded as day 0.5 of pregnancy. After 14 days of caging, the female mice stopped the administration, the male mice were removed, and the pregnant female mice were fed alone until litter.
In addition, 4-5 mice were randomly selected from each group and the 6-day-old small animals were subjected to cardiac echocardiography (Vevo 2100 Imaging System, VisualSonics, Toronto, ON, Canada).

[3] = tested on: fetal rat heart; assay: Effect of folic acid on fetal rat heart under pharmacological dose (Example 9); type: in vivo, rats
Experimental: In order to investigate an effect of folic acid on fetal rat heart under pharmacological dose, 6 folic acid groups and a blank control group were divided in the experiment, the folic acid groups were divided into a folic acid group 1 (4.555 mg/kg/d), a folic acid group 2 (2.2775 mg/kg/d), a folic acid group 3 (0.911 mg/kg/d), a folic acid group 4 (0.4555 mg/kg/d), a folic acid group 5 (0.22775 mg/kg/d) and a folic acid group 6 (0.113875 mg/kg/d). The folic acid groups and the blank control group consisted of 4 pregnant mice each. The pregnant mice in the folic acid group 1 (4.555 mg/kg/d), the folic acid group 2 (2.2775 mg/kg/d) and the folic acid group 3 (0.911 mg/kg/d) were intraperitoneally injected, the pregnant mice in the folic acid group 4 (0.4555 mg/kg/d), the folic acid group 5 (0.22775 mg/kg/d) and the folic acid group 6 (0.113875 mg/kg/d) were intragastrically administrated, and the pregnant mice in the blank control group were naturally fed. After the female rats were administrated for 7 days, male and female rats were mated in a cage at a ratio of 1:1 overnight, a vaginal plug was checked the next morning, a day when the vaginal plug was found was regarded as day 0 of pregnancy, the pregnant mice were separately fed and administrated for 21 consecutive days, a fetus was obtained by cesarean section, and the number of fetal rats in each group was shown in FIG. 30. Fetal rat hearts were taken for a pathological examination and the results were as follows.

[4] = tested on: zebrafish embryos; conditions: 6 mM FA
Experimental: Transgenic zebrafish (fli-1:EGFP) were from the Model Animal Research Center of Nanjing University. Adult zebrafish aged less than 1 were used for experiment and fed at a water pH value of 7±0.2, a temperature around 28° C. and a ratio of illumination to darkness of 14 h:10 h, and with Artemia salina eggs twice a day. Three zebrafish, one female, two males, were placed in a spawning box the night before and eggs were collected the next morning. Fish eggs were placed in an embryo culture medium (prepared with 0.2 g/L of sea salt) and cultured at 28° C. […] Dead embryos were cleaned up in time. Each experiment was conducted in triplicate. […] A phenotype of malformation was observed, the number of all abnormal zebrafish where the malformation was present was recorded and a malformation rate and a rescue rate of each group were calculated. Morphological defects, a heart rate, cardiac morphology and other indicators were observed and evaluated by an SMZ745T inverted stereomicroscope.

[5] = tested on: transcription factors (Nkx2.5, amhc, vmhc, hand2, has2, mef2a, mef2c, bmp2b, ephrinB2, ephB4) in zebrafish embryos; assay: qRT-PCR expression of transcription factors during development of zebrafish embryos (Example 4); type: in vivo; conditions: 8 mM FA
Experimental: In order to explore an effect of folic acid on epigenetics during development of the zebrafish embryos, the zebrafish embryos at different developmental stages were collected for testing. […] A fluorescent dye SYBR Green was used in the qRT-PCR experiment. The qRT-PCR was conducted according to the instructions of an SYBR Green qPCR Master Mix kit and a detection was conducted on an ABI (HT 7900) PCR instrument. […] An expression of β-actin was used as an internal reference and relative expression levels of other genes were calculated by a ΔΔCt method.

[6] = Group 1: folic acid 4.555 mg/kg/d intraperitoneal
[7] = Group 2: folic acid 2.2775 mg/kg/d intraperitoneal
[8] = Group 3: folic acid 0.911 mg/kg/d intraperitoneal
[9] = Group 4: folic acid 0.4555 mg/kg/d intragastric
[10] = Group 5: folic acid 0.22775 mg/kg/d intragastric
[11] = Group 6: folic acid 0.113875 mg/kg
[12] = Group 6: folic acid 0.113875 mg/kg/d intragastric

## Nc1nc2ncc(CNc3ccc(C(=O)N[C@@H](CCC(=O)O)C(=O)O)cc3)nc2c(=O)[nH]1 [FA, pteroylglutamic acid]
[1]; 2 mM FA
  embryo coverage: covered completely
[1]; 2 mM FA, 72 hpf
  heart shape and lower intestinal network blood vessels: normal heart shape and normal development of lower intestinal network blood vessels
[1]; FA 4 mM or above, 72 hpf
  heart shape and lower intestinal network blood vessels: pericardium edema malformations, atrial and ventricular elongation and developmental disorders of lower intestinal network blood vessels
[1]; FA groups of other concentrations (4-10 mM)
  embryo coverage: not covered completely
[1]; all FA groups (2, 4, 6, 8, 10 mM)
  survival rate of embryos: low survival rate of embryos
[1]; folic acid 8 mM, 72 hpf
  body length of embryos: significantly shortened the body length of the embryos
[1]; folic acid, 24 hpf
  embryo morphology: developmental malformation of heads and tails of the embryos
[1]; folic acid, especially at 48 hpf
  embryonic heart rate: affected an embryonic heart rate
[2]
  left ventricular internal diameter end-diastole (LVID(d)): significantly lower than those of other groups
  left ventricular internal diameter end-systole (LVID(s)): significantly lower than those of other groups
[3]; [6]
  Atrioventricular defects/septal defects: 3
  Development delay: 1
  Malformation cases: 4
  Malformation rate: 12.9%
  Sparse myocardial trabeculae: 0
[3]; [7]
  Atrioventricular defects/septal defects: 2
  Development delay: 2
  Malformation cases: 4
  Malformation rate: 12.1%
  Sparse myocardial trabeculae: 0
[3]; [8]
  Atrioventricular defects/septal defects: 1
  Development delay: 2
  Malformation cases: 3
  Malformation rate: 11.5%
  Sparse myocardial trabeculae: 0
[3]; [9]
  Atrioventricular defects/septal defects: 5
  Development delay: 0
  Malformation cases: 5
  Malformation rate: 17.2%
  Sparse myocardial trabeculae: 0
[3]; [10]
  Atrioventricular defects/septal defects: 5
  Development delay: 0
  Malformation cases: 5
  Malformation rate: 15.2%
  Sparse myocardial trabeculae: 0
[3]; [11]
  atrial walls defective (number of individuals): 1
  ventricular septal defects (number of individuals): 3
[3]; [12]
  Atrioventricular defects/septal defects: 4
  Development delay: 1
  Malformation cases: 4
  Malformation rate: 9.5%
  Sparse myocardial trabeculae: 0
[4]
  10 s heart rate (48 hpf) and body length (72 hpf): seriously led to bradycardia and a shortened body length of zebrafish
[4]; 2-72 hpf
  survival rate of zebrafish: severely led to a low survival rate of zebrafish
[4]; 8 hpf
  embryo development: delayed development of the zebrafish embryos
[4]; 24 hpf
  embryo phenotype: led to small heads and short tails of zebrafish
[4]; 48 hpf
  embryo phenotype: led to pericardium edema, dyspigmentation, and intersegmental vascular hypoplasia of zebrafish
  pericardium edema: seriously led to pericardium edema of zebrafish
[4]; 72 hpf
  embryo phenotype: led to developmental disorders of lower intestinal network blood vessels of the zebrafish
[5]; 24 hpf
  expression of bmp2b gene: decreased an expression of a bmp2b gene
  expression of mef2c gene: increased an expression of a mef2c gene
[5]; 48 hpf
  expression of ephb4 gene: inhibited
  expression of has2 gene: inhibited
  expression of mef2c gene: inhibited
  expression of vmhc gene: increased an expression of a vmhc gene
